The results in this text go back to patent publication US11834454B2, “Alkynylphenylbenzamide compounds and applications thereof” (SHENZHEN NEWDEL BIOTECH CO., LTD., priority 2021, dated 2023).

For one series, the target named is T1, BaF3-CD74-NTRK1 (Homo sapiens, UniProt P04629).
T1 construct: fused on or other part: P04233 (HLA class II histocompatibility antigen gamma chain)
The series is described as follows: Cell proliferation inhibition, Ba/F3-TRKs stable strain (CCK-8). The conditions noted are these: 72 hours, read-out: cell viability IC50 CD74-NTRK1. The series is classed as cell-based, mouse. The procedure, abridged:
(§1)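 Mouse Ba/F3 pre-B cells stably expressing CD74-NTRK1, ETV6-NTRK2 or ETV6-NTRK3 fusions and grown without IL3 were seeded at 8000-12000 cells/well.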

Another series deals with T2, BaF3-ETV6-NTRK3 (Homo sapiens, UniProt Q16288).
T2 construct: fused on or other part: P41212 (Transcription factor ETV6)
T2 sequence (Q16288 whole entry, the tested form may be a part): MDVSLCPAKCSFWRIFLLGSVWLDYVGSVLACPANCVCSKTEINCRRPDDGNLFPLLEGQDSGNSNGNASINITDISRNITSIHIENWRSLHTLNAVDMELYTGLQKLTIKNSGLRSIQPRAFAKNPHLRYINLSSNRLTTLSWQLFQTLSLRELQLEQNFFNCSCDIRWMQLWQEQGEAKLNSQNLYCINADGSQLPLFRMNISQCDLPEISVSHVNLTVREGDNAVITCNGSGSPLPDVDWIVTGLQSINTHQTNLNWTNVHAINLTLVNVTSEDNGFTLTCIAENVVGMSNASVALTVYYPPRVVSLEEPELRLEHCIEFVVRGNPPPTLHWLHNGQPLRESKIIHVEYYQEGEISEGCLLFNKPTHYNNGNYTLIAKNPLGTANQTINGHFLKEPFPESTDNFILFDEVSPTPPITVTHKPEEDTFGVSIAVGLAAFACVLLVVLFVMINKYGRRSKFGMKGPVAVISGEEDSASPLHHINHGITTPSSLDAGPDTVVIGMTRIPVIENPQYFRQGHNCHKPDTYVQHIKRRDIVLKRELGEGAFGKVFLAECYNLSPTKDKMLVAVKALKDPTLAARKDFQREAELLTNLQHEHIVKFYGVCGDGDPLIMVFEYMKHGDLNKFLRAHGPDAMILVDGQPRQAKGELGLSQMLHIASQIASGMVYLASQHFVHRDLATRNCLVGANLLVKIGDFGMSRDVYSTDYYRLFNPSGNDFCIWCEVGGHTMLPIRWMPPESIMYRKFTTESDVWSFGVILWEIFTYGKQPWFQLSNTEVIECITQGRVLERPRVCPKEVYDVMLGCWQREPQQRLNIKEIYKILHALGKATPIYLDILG
Described as above. It counts as cell-based, mouse. The conditions noted are these: 72 hours, read-out: cell viability IC50 ETV6-NTRK3. The procedure, abridged:
as §1

The next series has as its target T3, BaF3-CD74-NTRK1-G667A (Homo sapiens, UniProt P04629, G667A).
T3 construct: constructed pCDNA3.1(+) plasmid vector carrying genes such as; fused on or other part: P04233 (HLA class II histocompatibility antigen gamma chain)
Description: Drug-resistant cell proliferation inhibition (CCK-8). It counts as cell-based, mouse. The settings on record: 72 hours, read-out: drug-resistant cell viability IC50. The source says: BaF3 cells (mouse pre-B cells) used in this experiment were purchased from Japan Cell Bank, all of the monoclonal stable strains, BaF3-CD74-NTRK1-G667C, BaF3-CD74-NTRK1-F589L, BaF3-CD74-NTRK1-G595R, BaF3-CD74-NTRK1-G667A, BaF3-CD74-NTRK1-V573M, BaF3-ETV6-NTRK2-G639R, BaF3-ETV6-NTRK2-G709C, BaF3-ETV6-NTRK2-V617M, BaF3-ETV6-NTRK2-F633L, BaF3-ETV6-NTRK3-G696C, BaF3-ETV6-NTRK3-G696A, BaF3-ETV6-NTRK3-G623R, BaF3-ETV6-NTRK3-G623E, BaF3-ETV6-NTRK3-F617L and BaF3-ETV6-NTRK3-V601M were constructed by our laboratory, and were identified by experiments such as positive control, protein expression and gene sequencing.
The brief steps for stable strains construction were as follows: constructed pCDNA3.1(+) plasmid vector carrying genes such as BaF3-CD74-NTRK1-G667C, BaF3-CD74-NTRK1-F589L, BaF3-CD74-NTRK1-G595R, BaF3-CD74-NTRK1-G667A, BaF3-CD74-NTRK1-V573M, BaF3-ETV6-NTRK2-G639R, BaF3-ETV6-NTRK2-G709C, BaF3-ETV6-NTRK2-V617M, BaF3-ETV6-NTRK2-F633L, BaF3-ETV6-NTRK3-G696C, BaF3-ETV6-NTRK3-G696A, BaF3-ETV6-NTRK3-G623R, BaF3-ETV6-NTRK3-G623E, BaF3-ETV6-NTRK3-F617L and BaF3-ETV6-NTRK3-V601M; the plasmid was electroporated into Ba/F3 cells using Amaxa® Cell Line Nucleofector® Kit V; 48 hours after of electroporation, geneticin (G418) with a final concentration of 1000 μg/mL was added to screen for two weeks, and the interleukin 3 (IL3) was removed to continue screening to obtain polyclonal stable strains; and then single clones were selected by limiting dilution method; the stable strains were then identified by the positive drugs, Western Blot (WB), and gene sequencing; the correct monoclonal through identification can be used to study the cell proliferation inhibitory activity of the inhibitors.
Cell proliferation inhibitory activity study: The cells in logarithmic growth phase were seeded into 96-well plates at 8000-12000 cells/well, and the inhibitors at different concentrations of (0-10 μM) were added the next day, and the culture was continued for 72 hours; then 10 μL of Cell Counting Kit-8 Cell Counting Reagent (CCK-8 Reagent) was added to each well, and continued to incubate for 1-3 hours; then its absorbance at 450 nm and 650 nm were measured with a super microplate reader. The median inhibitory concentration (IC50) was calculated using medical graphing software (GraphPad Prism 8.0.0).

Series [1] relates to Ba/F3-CD74-TRKAG^667C allograft mouse model. The series is described as follows: In vivo antitumor efficacy, allograft mouse model. Set-up: species or system CB17-SCID female mice. The settings on record: for TGI: after treatment for 12 days. As for the experimental part: (§2) After washed twice with normal saline, the cells were adjusted to a density of 1×10^7 cells/mL and placed on ice, and injected subcutaneously into the right axilla of CB17-SCID female mice (purchased from Viton Lever, Beijing, 6-8 weeks old) as soon as possible, with 200 μL each injection.
(§3) The control group was given the same volume of mixed solvent orally. Body weight and tumor volume were recorded every two days.

Series [2] is described as follows: Effect on the body weight of mice in the allograft study. The series is classed as in vivo, CB17-SCID female mice. The settings on record: four doses 6.25, 12.5, 25, 50 mg/kg oral once a day. As for the experimental part: as §2, §3
The target in the next series is Bcr-Abl (Homo sapiens, UniProt P00519). The series is described as follows: Kinase selectivity, Z'-LYTE.
Sequence of Bcr-Abl (P00519 242-493 limits assumed): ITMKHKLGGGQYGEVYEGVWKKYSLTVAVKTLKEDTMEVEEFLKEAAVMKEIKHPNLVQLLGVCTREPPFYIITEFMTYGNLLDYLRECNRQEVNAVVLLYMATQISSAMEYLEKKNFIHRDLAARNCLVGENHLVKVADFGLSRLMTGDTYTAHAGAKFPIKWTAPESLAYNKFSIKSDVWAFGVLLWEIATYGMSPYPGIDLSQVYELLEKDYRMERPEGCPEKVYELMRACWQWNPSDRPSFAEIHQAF
For a further series, the target named is SRC (Homo sapiens, UniProt P12931). Description: Kinase selectivity, Z'-LYTE.
Sequence of SRC (P12931 whole entry, species assumed): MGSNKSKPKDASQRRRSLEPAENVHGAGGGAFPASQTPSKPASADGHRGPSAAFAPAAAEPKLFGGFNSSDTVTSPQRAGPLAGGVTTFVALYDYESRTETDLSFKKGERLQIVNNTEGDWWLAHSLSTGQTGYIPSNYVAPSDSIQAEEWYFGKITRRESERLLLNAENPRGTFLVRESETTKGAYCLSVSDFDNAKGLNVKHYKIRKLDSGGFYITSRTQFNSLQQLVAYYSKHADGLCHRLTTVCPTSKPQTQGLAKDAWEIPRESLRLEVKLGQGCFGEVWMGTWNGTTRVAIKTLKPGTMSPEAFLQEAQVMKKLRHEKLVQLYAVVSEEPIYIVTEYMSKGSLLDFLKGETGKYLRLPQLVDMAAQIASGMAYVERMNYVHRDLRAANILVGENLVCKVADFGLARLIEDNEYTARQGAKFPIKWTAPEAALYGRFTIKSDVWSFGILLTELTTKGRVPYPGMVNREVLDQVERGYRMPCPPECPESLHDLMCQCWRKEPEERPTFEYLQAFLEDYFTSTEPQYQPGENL
A further series addresses RET (Homo sapiens, UniProt P07949). The series is described as follows: Kinase selectivity, Z'-LYTE.
Another series concerns the target VEGFR2 (Homo sapiens, UniProt P35968). The series is described as follows: Kinase selectivity, Z'-LYTE.
The target in a further series is PDGFRB (Homo sapiens, UniProt P09619). Description: Kinase selectivity, Z'-LYTE.
Sequence of PDGFRB (P09619 33-1106, species assumed): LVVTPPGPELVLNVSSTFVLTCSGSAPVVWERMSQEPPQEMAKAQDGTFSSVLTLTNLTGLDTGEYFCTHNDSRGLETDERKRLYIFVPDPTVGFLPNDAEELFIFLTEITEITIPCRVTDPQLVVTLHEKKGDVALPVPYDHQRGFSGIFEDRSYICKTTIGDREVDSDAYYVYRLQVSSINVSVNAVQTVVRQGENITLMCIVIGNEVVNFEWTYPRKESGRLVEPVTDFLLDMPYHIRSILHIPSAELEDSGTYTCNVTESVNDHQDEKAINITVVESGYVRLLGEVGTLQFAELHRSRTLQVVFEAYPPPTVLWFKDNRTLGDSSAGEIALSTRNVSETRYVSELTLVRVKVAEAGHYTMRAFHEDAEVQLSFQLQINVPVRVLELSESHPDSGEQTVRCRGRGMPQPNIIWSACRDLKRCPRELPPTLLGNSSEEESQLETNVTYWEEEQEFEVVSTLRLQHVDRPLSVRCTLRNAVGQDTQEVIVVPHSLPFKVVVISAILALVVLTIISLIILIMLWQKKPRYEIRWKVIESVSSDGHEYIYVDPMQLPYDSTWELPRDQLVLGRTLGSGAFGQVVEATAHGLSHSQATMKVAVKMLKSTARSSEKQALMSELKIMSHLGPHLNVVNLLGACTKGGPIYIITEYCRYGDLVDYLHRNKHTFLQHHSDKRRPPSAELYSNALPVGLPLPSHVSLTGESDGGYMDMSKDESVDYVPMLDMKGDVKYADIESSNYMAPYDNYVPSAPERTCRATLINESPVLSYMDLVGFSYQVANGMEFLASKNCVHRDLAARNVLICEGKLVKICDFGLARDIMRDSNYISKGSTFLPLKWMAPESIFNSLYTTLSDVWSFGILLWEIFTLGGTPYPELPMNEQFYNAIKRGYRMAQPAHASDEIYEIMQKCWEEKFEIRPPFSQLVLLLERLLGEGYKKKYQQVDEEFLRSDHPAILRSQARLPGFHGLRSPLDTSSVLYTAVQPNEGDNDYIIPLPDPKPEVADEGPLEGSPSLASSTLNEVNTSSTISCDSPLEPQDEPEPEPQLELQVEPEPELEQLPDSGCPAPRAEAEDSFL
The target of a further series is T4, BaF3-ETV6-NTRK2 (Homo sapiens, UniProt Q16620).
T4 construct: fused on or other part: P41212 (Transcription factor ETV6)
T4 sequence (Q16620 538-822 limits assumed): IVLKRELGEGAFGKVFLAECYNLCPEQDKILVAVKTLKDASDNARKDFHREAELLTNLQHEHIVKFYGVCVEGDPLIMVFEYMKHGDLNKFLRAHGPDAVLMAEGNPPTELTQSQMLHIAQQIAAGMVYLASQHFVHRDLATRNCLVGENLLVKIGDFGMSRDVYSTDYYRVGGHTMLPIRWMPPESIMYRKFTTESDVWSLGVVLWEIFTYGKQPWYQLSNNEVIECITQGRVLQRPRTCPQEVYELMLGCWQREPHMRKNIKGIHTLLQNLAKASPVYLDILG
Description: Cell proliferation inhibition, Ba/F3-TRKs stable strain (CCK-8). The conditions noted are these: 72 hours, read-out: cell viability IC50 ETV6-NTRK2. The series is classed as cell-based, mouse. The procedure, abridged: as §1

T3 sequence (P04629 510-796 G667A limits assumed): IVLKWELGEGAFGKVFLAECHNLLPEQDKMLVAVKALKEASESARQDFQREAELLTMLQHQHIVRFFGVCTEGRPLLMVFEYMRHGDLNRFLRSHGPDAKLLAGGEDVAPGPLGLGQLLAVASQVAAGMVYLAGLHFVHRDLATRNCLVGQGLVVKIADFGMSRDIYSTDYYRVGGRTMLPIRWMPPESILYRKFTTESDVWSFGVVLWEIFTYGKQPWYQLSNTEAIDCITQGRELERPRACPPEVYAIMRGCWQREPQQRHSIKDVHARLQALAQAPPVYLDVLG
T1 sequence (P04629 510-796 limits assumed): as the sequence (P04629 510-796 G667A limits assumed) above, with A158G counted along it
Sequence of VEGFR2 (P35968 20-1356, species assumed): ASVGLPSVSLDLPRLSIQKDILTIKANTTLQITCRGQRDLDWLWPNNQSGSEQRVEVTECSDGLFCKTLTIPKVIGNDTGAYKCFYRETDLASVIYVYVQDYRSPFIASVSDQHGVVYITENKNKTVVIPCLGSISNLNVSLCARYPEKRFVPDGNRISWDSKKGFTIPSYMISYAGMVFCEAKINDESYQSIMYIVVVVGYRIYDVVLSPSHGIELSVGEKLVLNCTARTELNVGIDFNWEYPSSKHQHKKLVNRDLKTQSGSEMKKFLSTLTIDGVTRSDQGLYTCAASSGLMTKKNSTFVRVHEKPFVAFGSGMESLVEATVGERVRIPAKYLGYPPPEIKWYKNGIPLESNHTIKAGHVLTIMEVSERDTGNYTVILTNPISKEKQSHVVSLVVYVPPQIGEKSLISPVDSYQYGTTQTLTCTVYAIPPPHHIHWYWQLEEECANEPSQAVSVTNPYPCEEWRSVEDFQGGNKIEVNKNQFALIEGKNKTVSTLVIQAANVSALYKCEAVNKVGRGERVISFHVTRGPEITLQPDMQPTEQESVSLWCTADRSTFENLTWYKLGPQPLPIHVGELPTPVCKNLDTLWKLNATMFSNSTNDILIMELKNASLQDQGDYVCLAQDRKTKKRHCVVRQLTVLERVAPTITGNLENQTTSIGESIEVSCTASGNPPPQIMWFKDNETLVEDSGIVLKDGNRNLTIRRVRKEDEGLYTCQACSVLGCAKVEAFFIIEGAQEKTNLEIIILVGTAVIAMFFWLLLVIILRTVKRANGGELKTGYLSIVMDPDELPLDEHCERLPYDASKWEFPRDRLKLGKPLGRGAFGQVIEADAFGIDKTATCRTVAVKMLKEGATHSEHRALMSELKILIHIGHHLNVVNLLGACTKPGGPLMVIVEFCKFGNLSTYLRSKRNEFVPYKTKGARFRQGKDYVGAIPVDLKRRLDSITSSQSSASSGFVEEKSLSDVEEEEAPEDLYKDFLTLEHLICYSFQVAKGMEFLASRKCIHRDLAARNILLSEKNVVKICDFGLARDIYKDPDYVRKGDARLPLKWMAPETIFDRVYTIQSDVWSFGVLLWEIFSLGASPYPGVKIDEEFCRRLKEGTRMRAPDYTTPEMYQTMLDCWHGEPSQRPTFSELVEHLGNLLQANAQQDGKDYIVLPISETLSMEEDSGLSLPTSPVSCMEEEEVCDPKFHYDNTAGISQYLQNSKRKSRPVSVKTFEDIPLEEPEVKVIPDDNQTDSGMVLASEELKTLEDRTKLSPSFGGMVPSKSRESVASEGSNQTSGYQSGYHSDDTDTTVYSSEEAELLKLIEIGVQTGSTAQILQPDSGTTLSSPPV
Description for Bcr-Abl: (§4) Enzymatic reaction: In a 384-well plate, added 5 μL of enzyme-substrate system [50 mM 4-hydroxyethylpiperazineethanesulfonic acid (HEPES) pH 7.5, 0.01% BRIJ-35, 10 mM of magnesium chloride (MgCl2), 1 mM of ethylene glycol bis(2-aminoethyl ether)tetraacetic acid (EGTA), 2 μM of Tyr 01 peptide substrate], transferred 5 nL of compound (concentration gradient) using an Echo520 Ultra-Micro Liquid Pipetting System. […] Shaked and mixed, then centrifuged, and reacted at 30° C. in the dark for 1.5 hours.
Description for PDGFRB: as §4
Description for RET: as §4
Description for SRC: as §4
Description for VEGFR2: as §4

On to `Cc1c(C#Cc2cnc3ccc(N4CCC(O)CC4)nn23)cccc1C(=O)Nc1cc(Cl)cc(C(F)(F)F)c1` [XS3-55, N-(3-CHLORO-5-(TRIFLUOROMETHYL)PHENYL)-3-((6-(4-HYDROXYPIPERIDIN-1-YL)IMIDAZO[1,2-B]PYRIDAZINE-3-YL)ETHYNYL)-2-METHYLBENZAMIDE], for which the IC50 on BaF3-CD74-NTRK1 is 10 to 100 nM; at BaF3-ETV6-NTRK3 it was 10 to 100 nM; at BaF3-CD74-NTRK1-G667A, under 10 nM; at Bcr-Abl, over 10000 nM; on SRC it was 526 nM; on RET, over 10000 nM. Moreover, the figures for the IC50 against VEGFR2 and against PDGFRB were 833 nM and over 10000 nM, respectively. Moreover, the TGI came out at 50.9% in [1] (6.25 mg/kg/day oral), 76.3% in series [1] (12.5 mg/kg/day oral), 89.2% in [1] (25 mg/kg/day oral) and 91.6% in [1] (50 mg/kg/day oral). For the same compound, in series [1] (after 2 days of treatment at the lowest dose of 6.25 mg/kg, oral), the tumor size result is “Significant reductions in tumor size”. In addition, the “effect on mouse body weight” value in series [2] is listed as “no obvious adverse effect”.

`Cc1c(C#Cc2cnc3ccc(N4CCOCC4)nn23)cccc1C(=O)Nc1cc(CN2CCN(C)CC2)cc(C(F)(F)F)c1` [XS3-68, 2-METHYL-N-(3-((4-METHYLPIPERAZIN-1-YL)METHYL)-5-(TRIFLUOROMETHYL)PHENYL)-3-((6-METHYLENE) LINOIMIDAZO[1,2-B]PYRIDAZIN-3-YL)ETHYNYL)BENZAMIDE]: the IC50 at BaF3-CD74-NTRK1 was under 10 nM; on BaF3-ETV6-NTRK2, 10 to 100 nM; at BaF3-ETV6-NTRK3, under 10 nM; on BaF3-CD74-NTRK1-G667A, under 10 nM.

Regarding `Cc1c(C#Cc2cnc3ccc(N4CCC(O)CC4)nn23)cccc1C(=O)Nc1cc(CN2CCN(C)CC2)cc(C(F)(F)F)c1` [XS3-81, 3-((6-(4-HYDROXYPIPERIDIN-1-YL)IMIDAZO[1,2-B]PYRIDAZIN-3-YL)ETHYNYL)-2-METHYL-N-(3-(((4-METHYLPIPERAZIN-1-YL)METHYL)-5-(TRIFLUOROMETHYL)PHENYL)BENZAMIDE], the IC50 is 10 to 100 nM on BaF3-CD74-NTRK1, under 10 nM on BaF3-ETV6-NTRK2, under 10 nM on BaF3-ETV6-NTRK3 and under 10 nM on BaF3-CD74-NTRK1-G667A.

Regarding `Cc1cn(-c2cc(NC(=O)c3cccc(C#Cc4cnc5ccc(N6CCC(O)CC6)nn45)c3C)cc(C(F)(F)F)c2)cn1` [XS3-87, 3-((6-(4-HYDROXYPIPERIDIN-1-YL)IMIDAZO[1,2-B]PYRIDAZIN-3-YL)ETHYNYL)-2-METHYL-N-(3-(4-METHYL-1H-IMIDAZOL-1-YL)-5-(TRIFLUOROMETHYL)PHENYL)BENZAMIDE], the IC50 on BaF3-CD74-NTRK1 is under 10 nM; at BaF3-ETV6-NTRK2, 10 to 100 nM; at BaF3-ETV6-NTRK3, under 10 nM; at BaF3-CD74-NTRK1-G667A, under 10 nM.

As usually defined, the IC50 is the concentration that inhibits the measured activity by half. For orientation: TGI means the reduction of tumour growth relative to the control group. The low end stands for little slowing of growth, the high end for much slowing of growth.
